Test results from article PMC12491518, “Fabrication of cytotoxic mirror image nanopores” (Nature Communications, 2025).
Where a SMILES comes first, the peptide text is derived from it. [ ]: non-standard residue; d: D form.

Test system: MDA-MB-231 cells
Assay type: cell-based, human
Conditions: 10 µM and 20 µM, 24 h, MTT, n = 3
Protocol: The MDA-MB-231 cell line was obtained from ATCC (Kind gift from Dr. Annapoorni Rangarajan, Indian Institute of Science, Bengaluru, Karnataka, India) and tested negative for mycoplasma contamination. Cells were cultured in DMEM (Gibco, 11965-092) supplemented with 10% FBS (Thermo Fisher Scientific, 10270-106) and Penicillin (100 Units/mL) /Streptomycin (100 µg/mL) (Thermo Fisher Scientific, 15070-063). […] Cell proliferation was measured 24 h after the addition of Peptide/ DDM using MTT assay (3-(4,5-dimethylthiazol-2-yl)-2,5-diphenyltetrazolium bromide, M6494, Thermo Fischer Scientific). […] The purple-colored formazan crystals were dissolved by adding 100 µL DMSO (D5879, Sigma Aldrich), and the absorbance at 570 nm was measured using a plate reader (EMax plus microplate reader). […]
Immunofluorescence (IF) images were analyzed to assess the impact of different treatments on cell membrane integrity. […] We evaluated a t least 100 cells for each group - Control, DDM-treated cells and peptide-treated cells- with independent analysis done by a student blinded to the groups' identity . […]
indicating a loss of cell membrane integrity. This categorization provided a clear and systematic approach to quantify the effects of various treatments on cell membrane integrity. […]

CC[C@@H](C)[C@@H](NC(=O)[C@H](N)CCSC)C(=O)N[C@H](CC(=O)O)C(=O)N[C@H](CCC(N)=O)C(=O)N[C@@H](C(=O)N[C@@H](C(=O)N[C@H](CCC(=O)O)C(=O)N[C@@H](C(=O)N[C@H](Cc1ccccc1)C(=O)NCC(=O)N[C@H](CCC(N)=O)C(=O)N[C@H](CC(C)C)C(=O)NCC(=O)N[C@@H](C(=O)N[C@H](Cc1ccccc1)C(=O)N[C@H](CC(C)C)C(=O)NCC(=O)NCC(=O)N[C@H](Cc1ccccc1)C(=O)NCC(=O)N[C@H](CC(N)=O)C(=O)N[C@@H](C(=O)N[C@H](Cc1ccccc1)C(=O)N[C@H](CCCCN)C(=O)NCC(=O)N[C@H](CC(C)C)C(=O)N[C@H](CCCCN)C(=O)N[C@H](CC(=O)O)C(=O)N[C@@H](C(=O)N[C@@H](C(=O)N[C@H](CCC(=O)O)C(=O)N[C@@H](C(=O)N[C@@H](C(=O)N[C@@H](C(=O)N[C@H](CCCCN)C(=O)N[C@H](Cc1c[nH]c2ccccc12)C(=O)N[C@@H](C(=O)N[C@H](C)C(=O)N[C@H](C)C(=O)N[C@H](CCCCN)C(=O)O)[C@H](C)O)C(C)C)[C@H](C)CC)[C@H](C)O)[C@H](C)CC)C(C)C)[C@H](C)CC)[C@H](C)O)[C@H](C)CC)[C@H](C)O)[C@H](C)CC [DpPorA] (H-[dM][dI][dD][dQ][dI][dT][dE][dI][dF]G[dQ][dL]G[dT][dF][dL]GG[dF]G[dN][dI][dF][dK]G[dL][dK][dD][dV][dI][dE][dT][dI][dV][dK][dW][dT][dA][dA][dK]-OH; N-terminus and C-terminus assumed)
change in cell viability: no significant change in viability
